We go through 17 compounds from patent US12692249B2, “WDR5 inhibitors and modulators” (Vanderbilt University, priority 2019, dated 2026).

One assay deals with WDR5 (Homo sapiens, UniProt P61964). Put plainly: TR-FRET competition binding assay, displacement of 10mer-Thr-FAM MLL peptide probe from His-tagged WDR5. The conditions noted are these: WDR5-His tag (residues 24-334) 2 nM; 10mer-Thr-FAM 150 nM; 60 min, room temperature; read-out: Ki for Inhibition of WDR5 by TR-FRET assay. The method, then:
Time Resolved-Fluorescence Energy Transfer Competition Assay […] Excess 10mer-Thr-FAM probe was utilized with His-tagged WDR5 in conjunction with a commercial anti-His antibody containing a Terbium label. The LanthaScreenTM Elite Tb-anti-HIS Antibody from ThermoFisher Scientific was used for this purpose. […] The 10mer-Thr-FAM probe when bound to WDR5 will undergo a FRET interaction with the Tb-anti-HIS and emit at 520 nm. […] WDR[…] 10[…] used at 150 nM. […] A source plate is prepared using an Echo Liquid Handler, which distributes the compounds to the assay plate (white, flat-bottom; OptiPlate) in a 10-point, 5-fold dilution schemes with a top concentration of 5 μM, in a final volume of 20 μL. […] The final DMSO concentration in each well of the assay plate is 1% or lower. The plate is covered, shielded from light, and incubated for 60 minutes at room temperature with rocking. 10mer-Thr-FAM and Anti-His terbium antibody fluorescence is then measured on a Biotek Cytation 3 at excitation wavelength of 340 nm, and emission wavelengths of 495 nm and 520 nm. […] TR-FRET signal is plotted and IC50 and Ki values are calculated according to the formula of Wang Z. FEBS Lett (1996) 3, 245. Ki=[I]50/([L]50/Kd+[P]0/Kd+1) where [I]50 is the concentration of the free inhibitor at 50% inhibition, [L]50 is the concentration of the free labeled ligand at 50% inhibition, [P]0 is the concentration of the free protein at 0% inhibition, Kd represents the dissociation constant of the FITC-MLL or 10mer-Thr-FAM probe for WDR5. Total fluorescence is also measured, to rule out compounds that are inherently fluorescent or able to act as quenchers in the assay. TR-FRET Binding Assay
A general note: In TR-FRET formats the signal depends on donor and acceptor labels being close together.

Assay [1] has as its system MV4:11 human cancer cell lines. Put plainly: Cellular viability / anti-proliferative assay, CellTiter-Glo, 5 day protocol. It is filed as cell-based. To be noted: Homo sapiens, MV4-11, 120 h, MV4:11 cells; 5 day incubation; CellTiter-Glo; mean of at least two replicates; read-out: GI50 on cellular proliferation of MV4:11 human cancer cell lines. As for the experimental part:
Cellular Viability of Human Tumor Cell Lines
Anti-proliferative activity using MLL-harboring cell lines. MV-4-11 and K562 cells are grown in IMDM media supplemented with 10% FBS and 1% penicillin/streptomycin, Molm-13 cells are cultured in RPMI-1640 media supplemented with 10% FBS and 1% penicillin/streptomycin. Viability assays are performed by dispensing 200 cells at 7200 cells/mL into each well of an opaque 384-well plate and adding compounds at the indicated concentrations in a final volume, of 32 μL. and a final concentration of DMSO of 0.3% for all samples. A certain range of compound concentrations is made through a series of 2-fold dilutions starting 30 μM at the highest, total 22 dilutions. After a set incubation period, 5 day protocol, the viability of cells in each well is assessed using the CellTiter-Glo assay (Promega), read on a 96 Microplane Luminometer (Cytation 3, BioTek). Serial dilutions of each cell type are performed in all assays to generate standard curves and the final densities of cells are determined within the dynamic range of the instrument. GI50 values are calculated based on XLfit software (IDBS, Guildford, UK) with Sigmoidal Dose-Response Model. Each compound is tested in minimum of two replicates. Data are expressed as mean.

What is called Ki is a measure of affinity in units of concentration, obtained from inhibition or displacement.

As to `Cc1nccn1Cc1cc2c(c(-c3cn(C)nc3C(F)(F)F)c1)CCN(c1cccc3ccccc13)C2=O` [Example 1, 7-((2-Methyl-1H-imidazol-1-yl)methyl)-5-(1-methyl-3-(trifluoromethyl)-1H-pyrazol-4-yl)-2-(naphthalen-1-yl)-3,4-dihydroisoquinolin-1(2H)-one], the Ki at WDR5 is 0.46 nM. In addition, the GI50 in assay [1] came out at 1540 nM. On to `Cc1nccn1Cc1cc2c(c(-c3cn(C)nc3C(F)(F)F)c1)CCN(c1ccnc3cc(Cl)ccc13)C2=O` [Example 2, 2-(7-Chloroquinolin-4-yl)-7-((2-methyl-1H-imidazol-1-yl)methyl)-5-(1-methyl-3-(trifluoromethyl)-1H-pyrazol-4-yl)-3,4-dihydroisoquinolin-1(2H)-one], for which, on WDR5, the Ki came to 0.05 nM. Further, the GI50 in assay [1] is 189 nM.

Take `COc1cnc2cccc(N3CCc4c(cc(Cn5ccnc5C)cc4-c4cn(C)nc4C(F)(F)F)C3=O)c2c1` [Example 3, 2-(3-Methoxyquinolin-5-yl)-7-((2-methyl-1H-imidazol-1-yl)methyl)-5-(1-methyl-3-(trifluoromethyl)-1H-pyrazol-4-yl)-3,4-dihydroisoquinolin-1(2H)-one]: the Ki at WDR5 is under 0.02 nM. In addition, the GI50 in assay [1] was 20 nM. `COc1ccc2nccc(N3CCc4c(cc(Cn5ccnc5C)cc4-c4cn(C)nc4C(F)(F)F)C3=O)c2c1` [Example 4, 2-(6-Methoxyquinolin-4-yl)-7-((2-methyl-1H-imidazol-1-yl)methyl)-5-(1-methyl-3-(trifluoromethyl)-1H-pyrazol-4-yl)-3,4-dihydroisoquinolin-1(2H)-one]: on WDR5, the Ki is under 0.02 nM. Further, in assay [1], the GI50 was under 20 nM.

Turning to `COc1ccc2ccnc(N3CCc4c(cc(Cn5ccnc5C)cc4-c4cn(C)nc4C(F)(F)F)C3=O)c2c1` [Example 5, 7-Methoxy-7′-((2-methyl-1H-imidazol-1-yl)methyl)-5-(1-methyl-3-(trifluoromethyl)-1H-pyrazol-4-yl)-3′,4-dihydro-1′H-[1,2′-biisoquinolin]-1′-one], the Ki at WDR5 worked out at 0.034 nM. Besides, the GI50 in assay [1] came to 83 nM.

With `COc1cc2c(N3CCc4c(cc(Cn5ccnc5C)cc4-c4cn(C)nc4C(F)(F)F)C3=O)ccnc2cc1C` [Example 6, 2-(6-Methoxy-7-methylquinolin-4-yl)-7-((2-methyl-1H-imidazol-1-yl)methyl)-5-(1-methyl-3-(trifluoromethyl)-1H-pyrazol-4-yl)-3,4-dihydroisoquinolin-1(2H)-one], the Ki on WDR5 stood at 0.024 nM. For the same compound, the GI50 in assay [1] is 32 nM.

On to `COc1cc(C)c2nccc(N3CCc4c(cc(Cn5ccnc5C)cc4-c4cn(C)nc4C(F)(F)F)C3=O)c2c1` [Example 7, 2-(6-Methoxy-8-methylquinolin-4-yl)-7-((2-methyl-1H-imidazol-1-yl)methyl)-5-(1-methyl-3-(trifluoromethyl)-1H-pyrazol-4-yl)-3,4-dihydroisoquinolin-1(2H)-one], for which, on WDR5, the Ki is 0.026 nM. The GI50 in assay [1] turned out to be 29 nM. On to `COc1ccc2nc(C)cc(N3CCc4c(cc(Cn5ccnc5C)cc4-c4cn(C)nc4C(F)(F)F)C3=O)c2c1` [Example 8, 2-(6-Methoxy-2-methylquinolin-4-yl)-7-((2-methyl-1H-imidazol-1-yl)methyl)-5-(1-methyl-3-(trifluoromethyl)-1H-pyrazol-4-yl)-3,4-dihydroisoquinolin-1(2H)-one], for which the Ki on WDR5 was found to be 0.026 nM. For the same compound, in assay [1], the GI50 is under 20 nM. In the case of `COc1ccc2ncc(Cl)c(N3CCc4c(cc(Cn5ccnc5C)cc4-c4cn(C)nc4C(F)(F)F)C3=O)c2c1` [Example 9, 2-(3-Chloro-6-methoxyquinolin-4-yl)-7-((2-methyl-1H-imidazol-1-yl)methyl)-5-(1-methyl-3-(trifluoromethyl)-1H-pyrazol-4-yl)-3,4-dihydroisoquinolin-1(2H)-one], the Ki on WDR5 was 0.048 nM. Besides, in assay [1], the GI50 was 43 nM. As to `Cc1ccc2cncc(N3CCc4c(cc(Cn5ccnc5C)cc4-c4cn(C)nc4C(F)(F)F)C3=O)c2c1` [Example 10, 6′-Methyl-7-((2-methyl-1H-imidazol-1-yl)methyl)-5-(1-methyl-3-(trifluoromethyl)-1H-pyrazol-4-yl)-3,4-dihydro-1H-[2,4′-biisoquinolin]-1-one], the Ki on WDR5 was found to be 0.029 nM. In assay [1], the GI50 was under 20 nM. The like results for `COc1ccc(N2CCc3c(cc(Cn4ccnc4C)cc3-c3cn(C)nc3C(F)(F)F)C2=O)c2cc(C)cnc12` [Example 11, 2-(8-Methoxy-3-methylquinolin-5-yl)-7-((2-methyl-1H-imidazol-1-yl)methyl)-5-(1-methyl-3-(trifluoromethyl)-1H-pyrazol-4-yl)-3,4-dihydroisoquinolin-1(2H)-one] were, in that order, 0.035 nM and 3890 nM.

On to `COc1cnc2cccc(N3CCc4c(cc(Cn5ccnc5)cc4-c4cn(C)nc4C(F)(F)F)C3=O)c2c1` [Example 12, 7-((1H-Imidazol-1-yl)methyl)-2-(3-methoxyquinolin-5-yl)-5-(1-methyl-3-(trifluoromethyl)-1H-pyrazol-4-yl)-3,4-dihydroisoquinolin-1(2H)-one], for which the Ki on WDR5 was under 0.02 nM. Besides, the GI50 in assay [1] came to 34 nM. In the case of `COc1ccc2nccc(N3CCc4c(cc(Cn5ccnc5)cc4-c4cn(C)nc4C(F)(F)F)C3=O)c2c1` [Example 13, 7-((1H-Imidazol-1-yl)methyl)-2-(6-methoxyquinolin-4-yl)-5-(1-methyl-3-(trifluoromethyl)-1H-pyrazol-4-yl)-3,4-dihydroisoquinolin-1(2H)-one], the Ki on WDR5 is under 0.02 nM. The GI50 in assay [1] was 45 nM. Turning to `Cc1ccc2nccc(N3CCc4c(cc(Cn5ccnc5)cc4-c4cn(C)nc4C(F)(F)F)C3=O)c2c1` [Example 15, 7-((1H-Imidazol-1-yl)methyl)-5-(1-methyl-3-(trifluoromethyl)-1H-pyrazol-4-yl)-2-(6-methylquinolin-4-yl)-3,4-dihydroisoquinolin-1(2H)-one], on WDR5, the Ki amounted to 0.026 nM. Also, the GI50 in assay [1] was found to be 64 nM. In the case of `Cc1ccc2cncc(N3CCc4c(cc(Cn5ccnc5)cc4-c4cn(C)nc4C(F)(F)F)C3=O)c2c1` [Example 16, 7-((1H-Imidazol-1-yl)methyl)-6′-methyl-5-(1-methyl-3-(trifluoromethyl)-1H-pyrazol-4-yl)-3,4-dihydro-1-[2,4′-biisoquinolin]-1-one], the Ki at WDR5 was determined as 0.028 nM. In addition, in assay [1], the GI50 is 42 nM. As for `COc1cc(OC)c2nccc(N3CCc4c(cc(Cn5ccnc5)cc4-c4cn(C)nc4C(F)(F)F)C3=O)c2c1` [Example 17, 7-((1H-Imidazol-1-yl)methyl)-2-(6,8-dimethoxyquinolin-4-yl)-5-(1-methyl-3-(trifluoromethyl)-1H-pyrazol-4-yl)-3,4-dihydroisoquinolin-1(2H)-one], at WDR5, the Ki came out at 0.025 nM. Also, the GI50 in assay [1] was under 20 nM. Consider `CCc1cc(NC(C)=O)c2nccc(N3CCc4c(cc(Cn5ccnc5)cc4-c4cn(C)nc4C(F)(F)F)C3=O)c2c1` [Example 231, N-(4-(7-((1H-Imidazol-1-yl)methyl)-5-(1-methyl-3-(trifluoromethyl)-1H-pyrazol-4-yl)-1-oxo-3,4-dihydroisoquinolin-2(1H)-yl)-6-ethylquinolin-8-yl)acetamide], for which the Ki on WDR5 was under 0.02 nM.
